According to paper PMC7252619 (PLoS ONE, 2020):
Read-outs that look alike come from different tables or passages of the source. Values belong to the compound of their own block, whether it stands above or below them.

Tests used:
Test in all cases: Kinase activity test (ReactionBiology), % enzyme activity relative to DMSO
Format in all cases: biochemical
DAPK1 = target: T1, DAPK1 (Homo sapiens, UniProt P53355); conditions: DAPK1; for % Enzyme Activity (relative to DMSO controls), Data 1: replicate Data 1; for % Enzyme Activity (relative to DMSO controls), Data 2: replicate Data 2
T1 construct: purchased ReactionBiology
T1 sequence (P53355 whole entry): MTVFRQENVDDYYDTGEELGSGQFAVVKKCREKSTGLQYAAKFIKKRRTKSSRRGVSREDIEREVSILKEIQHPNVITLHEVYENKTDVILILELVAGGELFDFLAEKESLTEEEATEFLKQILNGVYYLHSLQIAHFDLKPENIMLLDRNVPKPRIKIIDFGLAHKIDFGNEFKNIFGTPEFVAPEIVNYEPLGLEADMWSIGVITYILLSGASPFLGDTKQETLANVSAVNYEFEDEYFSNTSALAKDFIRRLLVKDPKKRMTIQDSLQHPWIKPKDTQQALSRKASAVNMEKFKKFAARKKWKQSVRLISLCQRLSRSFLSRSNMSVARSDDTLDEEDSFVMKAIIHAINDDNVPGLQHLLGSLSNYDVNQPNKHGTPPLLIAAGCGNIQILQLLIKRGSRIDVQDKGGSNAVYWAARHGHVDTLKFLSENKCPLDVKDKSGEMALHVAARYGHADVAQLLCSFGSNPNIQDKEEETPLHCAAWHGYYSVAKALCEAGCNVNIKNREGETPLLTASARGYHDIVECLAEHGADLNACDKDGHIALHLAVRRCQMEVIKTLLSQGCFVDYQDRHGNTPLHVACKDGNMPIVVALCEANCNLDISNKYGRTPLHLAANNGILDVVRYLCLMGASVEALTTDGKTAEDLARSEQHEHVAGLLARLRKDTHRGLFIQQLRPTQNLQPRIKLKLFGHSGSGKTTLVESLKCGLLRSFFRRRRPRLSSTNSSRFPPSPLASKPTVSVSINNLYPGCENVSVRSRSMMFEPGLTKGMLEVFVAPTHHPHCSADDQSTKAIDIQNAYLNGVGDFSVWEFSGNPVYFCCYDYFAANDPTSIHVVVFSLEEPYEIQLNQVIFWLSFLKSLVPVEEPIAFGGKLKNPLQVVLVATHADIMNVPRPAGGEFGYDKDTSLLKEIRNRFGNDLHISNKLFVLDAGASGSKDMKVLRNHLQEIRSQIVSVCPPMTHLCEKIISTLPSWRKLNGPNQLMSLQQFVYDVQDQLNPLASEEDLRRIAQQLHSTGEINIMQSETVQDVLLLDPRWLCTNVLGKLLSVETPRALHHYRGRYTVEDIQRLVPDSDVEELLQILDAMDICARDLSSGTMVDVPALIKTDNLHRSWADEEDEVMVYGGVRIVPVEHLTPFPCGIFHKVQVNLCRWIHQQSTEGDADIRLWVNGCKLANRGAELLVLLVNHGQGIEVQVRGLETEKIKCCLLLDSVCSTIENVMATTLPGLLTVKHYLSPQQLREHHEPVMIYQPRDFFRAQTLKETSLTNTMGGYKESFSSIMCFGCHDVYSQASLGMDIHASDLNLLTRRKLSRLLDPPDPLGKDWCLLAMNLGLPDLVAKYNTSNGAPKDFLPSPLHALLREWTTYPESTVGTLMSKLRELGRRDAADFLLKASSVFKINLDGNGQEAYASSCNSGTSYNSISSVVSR

CK1d = target: T2, CK1d (Homo sapiens, UniProt P48730); conditions: CK1d; 1 uM; replicate Data 1
T2 construct: purchased ReactionBiology
T2 sequence (P48730 whole entry): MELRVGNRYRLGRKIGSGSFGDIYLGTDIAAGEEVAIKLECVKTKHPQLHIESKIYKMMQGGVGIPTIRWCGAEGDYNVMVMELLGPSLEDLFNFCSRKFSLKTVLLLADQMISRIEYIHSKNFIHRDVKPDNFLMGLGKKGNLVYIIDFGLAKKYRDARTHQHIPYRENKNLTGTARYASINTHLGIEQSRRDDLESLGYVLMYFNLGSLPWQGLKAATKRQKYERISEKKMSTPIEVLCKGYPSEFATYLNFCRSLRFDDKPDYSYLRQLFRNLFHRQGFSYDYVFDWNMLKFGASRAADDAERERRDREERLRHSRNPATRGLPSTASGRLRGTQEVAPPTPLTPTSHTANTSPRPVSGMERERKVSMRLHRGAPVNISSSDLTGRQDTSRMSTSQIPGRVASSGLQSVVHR

CDC7 = target: T3, CDC7 (Homo sapiens, UniProt O00311); conditions: CDC7; for % Enzyme Activity (relative to DMSO controls), Data 1: replicate Data 1; for % Enzyme Activity (relative to DMSO controls), Data 2: replicate Data 2;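 for all read-outs here: each drug screened at both 10 µM and 1 µM across a ten-kinase panel, activity expressed as percent of DMSO control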
T3 construct: purchased ReactionBiology
T3 sequence (O00311 whole entry): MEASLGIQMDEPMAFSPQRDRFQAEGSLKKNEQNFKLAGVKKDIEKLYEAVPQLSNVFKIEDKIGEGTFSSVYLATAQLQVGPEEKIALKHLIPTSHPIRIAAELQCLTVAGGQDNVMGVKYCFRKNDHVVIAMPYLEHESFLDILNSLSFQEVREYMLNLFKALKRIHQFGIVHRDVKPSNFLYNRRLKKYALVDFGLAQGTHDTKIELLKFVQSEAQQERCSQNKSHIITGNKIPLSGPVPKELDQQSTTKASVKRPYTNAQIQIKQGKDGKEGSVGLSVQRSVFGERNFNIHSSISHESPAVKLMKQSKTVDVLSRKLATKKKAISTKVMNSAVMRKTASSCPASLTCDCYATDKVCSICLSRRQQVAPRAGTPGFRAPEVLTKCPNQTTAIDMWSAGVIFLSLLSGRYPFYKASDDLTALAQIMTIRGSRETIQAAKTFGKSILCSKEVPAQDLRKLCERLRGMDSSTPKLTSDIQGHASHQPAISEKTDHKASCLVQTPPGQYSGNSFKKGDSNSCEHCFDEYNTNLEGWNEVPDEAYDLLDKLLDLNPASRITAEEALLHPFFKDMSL
T3 sequence (Q9UBU7 whole entry partner): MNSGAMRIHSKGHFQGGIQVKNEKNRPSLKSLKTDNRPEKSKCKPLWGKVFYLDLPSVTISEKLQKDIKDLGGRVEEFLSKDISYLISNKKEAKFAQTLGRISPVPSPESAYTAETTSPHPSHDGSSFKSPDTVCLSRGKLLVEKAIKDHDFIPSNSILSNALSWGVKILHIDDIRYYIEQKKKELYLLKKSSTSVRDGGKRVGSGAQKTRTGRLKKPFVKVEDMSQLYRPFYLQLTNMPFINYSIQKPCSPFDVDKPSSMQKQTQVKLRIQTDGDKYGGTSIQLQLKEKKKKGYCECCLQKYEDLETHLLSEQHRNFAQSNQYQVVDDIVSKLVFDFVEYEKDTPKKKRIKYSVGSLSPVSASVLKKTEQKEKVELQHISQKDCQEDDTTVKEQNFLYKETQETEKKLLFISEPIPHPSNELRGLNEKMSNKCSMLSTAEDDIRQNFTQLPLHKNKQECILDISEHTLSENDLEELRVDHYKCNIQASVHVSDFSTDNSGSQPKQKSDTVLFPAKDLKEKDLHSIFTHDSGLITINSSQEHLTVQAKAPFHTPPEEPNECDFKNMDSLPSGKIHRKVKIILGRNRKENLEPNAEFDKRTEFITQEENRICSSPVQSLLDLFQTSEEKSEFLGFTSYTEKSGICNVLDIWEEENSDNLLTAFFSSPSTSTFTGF

EPHB4 = target: T4, EPHB4 (Homo sapiens, UniProt P54760); conditions: EPHB4, replicate Data 1;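 note: EPHB4 was one of ten selected kinases in the screening panel, with enzyme activity expressed as a percentage of DMSO controls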
T4 construct: purchased ReactionBiology
T4 sequence (P54760 16-987): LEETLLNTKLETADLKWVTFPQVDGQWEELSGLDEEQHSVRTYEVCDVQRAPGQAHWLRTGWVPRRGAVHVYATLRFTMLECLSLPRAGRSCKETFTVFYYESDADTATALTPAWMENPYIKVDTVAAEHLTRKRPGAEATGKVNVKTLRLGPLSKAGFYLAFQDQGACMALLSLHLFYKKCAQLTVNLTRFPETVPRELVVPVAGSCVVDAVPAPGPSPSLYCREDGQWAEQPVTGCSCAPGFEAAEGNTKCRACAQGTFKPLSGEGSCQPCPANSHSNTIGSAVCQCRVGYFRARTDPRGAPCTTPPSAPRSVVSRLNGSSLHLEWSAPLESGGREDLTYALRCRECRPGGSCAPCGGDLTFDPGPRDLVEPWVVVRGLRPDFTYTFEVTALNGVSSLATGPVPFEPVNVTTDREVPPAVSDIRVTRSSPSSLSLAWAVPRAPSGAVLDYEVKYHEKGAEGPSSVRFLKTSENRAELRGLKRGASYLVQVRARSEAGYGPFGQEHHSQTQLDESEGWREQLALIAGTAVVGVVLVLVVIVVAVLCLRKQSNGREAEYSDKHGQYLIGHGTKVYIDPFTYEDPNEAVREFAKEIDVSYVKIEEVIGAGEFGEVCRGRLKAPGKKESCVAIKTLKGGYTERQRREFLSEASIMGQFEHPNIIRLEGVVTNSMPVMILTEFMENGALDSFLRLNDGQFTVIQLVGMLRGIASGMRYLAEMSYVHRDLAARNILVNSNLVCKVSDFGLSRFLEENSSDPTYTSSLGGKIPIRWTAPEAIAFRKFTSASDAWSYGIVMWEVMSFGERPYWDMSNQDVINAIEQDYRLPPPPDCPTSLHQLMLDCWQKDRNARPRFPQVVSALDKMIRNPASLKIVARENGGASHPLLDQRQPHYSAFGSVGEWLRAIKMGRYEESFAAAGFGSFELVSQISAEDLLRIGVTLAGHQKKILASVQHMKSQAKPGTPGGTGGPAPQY

NEK2 = target: T5, NEK2 (Homo sapiens, UniProt P51955); conditions: NEK2;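 note: FDA-approved drugs chosen by structure-based repositioning, each screened at 10 or 1 µM for kinase activity, expressed as percent of DMSO controls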
T5 construct: purchased ReactionBiology
T5 sequence (P51955 1-445): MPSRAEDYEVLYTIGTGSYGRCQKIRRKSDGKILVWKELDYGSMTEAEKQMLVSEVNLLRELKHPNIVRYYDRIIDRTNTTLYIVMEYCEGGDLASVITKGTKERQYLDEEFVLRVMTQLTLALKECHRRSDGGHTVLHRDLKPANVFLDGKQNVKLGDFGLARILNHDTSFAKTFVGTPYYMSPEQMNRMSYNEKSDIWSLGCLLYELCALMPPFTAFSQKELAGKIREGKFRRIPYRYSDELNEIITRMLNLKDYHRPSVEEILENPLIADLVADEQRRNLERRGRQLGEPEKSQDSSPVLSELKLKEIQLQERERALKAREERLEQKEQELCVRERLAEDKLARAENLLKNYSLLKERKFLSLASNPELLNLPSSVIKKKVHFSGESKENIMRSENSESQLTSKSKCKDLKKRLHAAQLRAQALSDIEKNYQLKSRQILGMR

MAP2K2 = target: T6, MAP2K2 (Homo sapiens, UniProt P36507); conditions: MEK2
T6 construct: purchased ReactionBiology
T6 sequence (P36507 whole entry): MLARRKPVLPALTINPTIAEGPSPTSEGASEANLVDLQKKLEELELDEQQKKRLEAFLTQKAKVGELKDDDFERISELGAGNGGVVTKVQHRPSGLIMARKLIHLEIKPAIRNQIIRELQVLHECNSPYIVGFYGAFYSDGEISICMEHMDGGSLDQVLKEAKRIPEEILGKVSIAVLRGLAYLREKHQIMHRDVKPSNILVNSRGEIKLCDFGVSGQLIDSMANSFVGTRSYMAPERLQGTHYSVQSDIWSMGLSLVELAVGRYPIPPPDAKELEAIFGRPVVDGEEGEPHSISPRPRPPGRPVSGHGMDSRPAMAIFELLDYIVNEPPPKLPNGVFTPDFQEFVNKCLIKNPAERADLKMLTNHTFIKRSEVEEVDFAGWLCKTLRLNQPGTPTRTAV

VEGFR2 = VEGFR2 (Homo sapiens, UniProt P35968); parameters: purchased ReactionBiology; conditions: VEGFR2;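 note: VEGFR2 was one member of a ten-kinase screening panel testing marketed FDA-approved drugs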
VEGFR2, sequence (P35968 20-1356): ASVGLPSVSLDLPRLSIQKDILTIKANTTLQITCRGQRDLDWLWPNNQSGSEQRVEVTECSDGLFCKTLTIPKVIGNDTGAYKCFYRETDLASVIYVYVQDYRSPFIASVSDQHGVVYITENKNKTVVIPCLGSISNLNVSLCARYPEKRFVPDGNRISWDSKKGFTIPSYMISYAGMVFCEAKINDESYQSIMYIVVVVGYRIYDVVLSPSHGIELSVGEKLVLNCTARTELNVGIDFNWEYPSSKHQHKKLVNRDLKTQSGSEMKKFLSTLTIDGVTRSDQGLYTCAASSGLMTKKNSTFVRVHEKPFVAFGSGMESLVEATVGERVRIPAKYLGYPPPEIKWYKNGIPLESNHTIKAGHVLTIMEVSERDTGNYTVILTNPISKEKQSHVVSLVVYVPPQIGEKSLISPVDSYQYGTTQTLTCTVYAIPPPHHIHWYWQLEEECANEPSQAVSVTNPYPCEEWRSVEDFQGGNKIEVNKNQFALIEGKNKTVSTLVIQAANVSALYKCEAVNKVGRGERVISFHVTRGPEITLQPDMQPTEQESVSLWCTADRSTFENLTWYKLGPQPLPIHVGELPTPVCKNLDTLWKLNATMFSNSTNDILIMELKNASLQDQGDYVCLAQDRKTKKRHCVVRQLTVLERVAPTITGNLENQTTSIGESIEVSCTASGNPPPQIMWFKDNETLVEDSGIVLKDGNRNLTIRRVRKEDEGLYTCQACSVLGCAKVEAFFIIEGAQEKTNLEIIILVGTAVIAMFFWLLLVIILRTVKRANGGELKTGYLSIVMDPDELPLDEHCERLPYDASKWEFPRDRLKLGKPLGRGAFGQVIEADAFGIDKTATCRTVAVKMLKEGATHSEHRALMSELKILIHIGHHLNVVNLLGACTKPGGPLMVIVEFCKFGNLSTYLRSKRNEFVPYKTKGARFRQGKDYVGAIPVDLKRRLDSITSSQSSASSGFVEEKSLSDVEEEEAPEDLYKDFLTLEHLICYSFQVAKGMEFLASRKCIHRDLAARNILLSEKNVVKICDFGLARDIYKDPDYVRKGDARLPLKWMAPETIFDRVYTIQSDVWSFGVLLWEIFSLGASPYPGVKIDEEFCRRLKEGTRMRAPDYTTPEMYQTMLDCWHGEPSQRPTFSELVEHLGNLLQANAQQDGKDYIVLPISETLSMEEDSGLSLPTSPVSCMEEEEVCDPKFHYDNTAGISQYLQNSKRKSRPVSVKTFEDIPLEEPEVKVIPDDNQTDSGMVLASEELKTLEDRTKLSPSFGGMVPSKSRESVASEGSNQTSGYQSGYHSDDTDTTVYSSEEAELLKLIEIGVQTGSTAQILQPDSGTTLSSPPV

[1] = Average, read-out: % Enzyme Activity (relative to DMSO controls), Average
[2] = replicate Data 1, read-out: % Enzyme Activity (relative to DMSO controls), Data 1
[3] = replicate Data 2, read-out: % Enzyme Activity (relative to DMSO controls), Data 2
[4] = 1 uM, Average, read-out: % Enzyme Activity (relative to DMSO controls), Average
[5] = 1 uM, replicate Data 1, read-out: % Enzyme Activity (relative to DMSO controls), Data 1
[6] = 1 uM, replicate Data 2, read-out: % Enzyme Activity (relative to DMSO controls), Data 2
[7] = 10 uM, Average, read-out: % Enzyme Activity (relative to DMSO controls), Average
[8] = 10 uM, replicate Data 1, read-out: % Enzyme Activity (relative to DMSO controls), Data 1
[9] = 10 uM, replicate Data 2, read-out: % Enzyme Activity (relative to DMSO controls), Data 2

Compound: CC(=O)Nc1ccc(O)cc1 [Acetaminophen]
% Enzyme Activity (relative to DMSO controls), Data 1 (DAPK1; 1 uM): 112.11%
% Enzyme Activity (relative to DMSO controls), Data 1 (DAPK1; 10 uM): 98.16%
% Enzyme Activity (relative to DMSO controls), Data 1 (CK1d): 106.63%
% Enzyme Activity (relative to DMSO controls), Data 1 (CDC7; 1 uM): 78.79%
% Enzyme Activity (relative to DMSO controls), Data 1 (CDC7; 10 uM): 85.04%
% Enzyme Activity (relative to DMSO controls), Data 1 (EPHB4; 1 uM): 95.30%
% Enzyme Activity (relative to DMSO controls), Data 1 (EPHB4; 10 uM): 99.39%

% Enzyme Activity (relative to DMSO controls), Average (DAPK1; 1 uM): 99.82%
% Enzyme Activity (relative to DMSO controls), Data 1 (DAPK1; 1 uM): 95.51%
% Enzyme Activity (relative to DMSO controls), Data 2 (DAPK1; 1 uM): 104.12%
% Enzyme Activity (relative to DMSO controls), Average (DAPK1; 10 uM): 92.04%
% Enzyme Activity (relative to DMSO controls), Data 1 (DAPK1; 10 uM): 94.13%
% Enzyme Activity (relative to DMSO controls), Data 2 (DAPK1; 10 uM): 89.94%
% Enzyme Activity (relative to DMSO controls), Average (CDC7; 1 uM): 74.98%
% Enzyme Activity (relative to DMSO controls), Data 1 (CDC7; 1 uM): 77.59%
% Enzyme Activity (relative to DMSO controls), Data 2 (CDC7; 1 uM): 72.36%
% Enzyme Activity (relative to DMSO controls), Average (CDC7; 10 uM): 84.55%
% Enzyme Activity (relative to DMSO controls), Data 1 (CDC7; 10 uM): 84.43%
% Enzyme Activity (relative to DMSO controls), Data 2 (CDC7; 10 uM): 84.67%
Compound: CC(C)C[C@H](NC(=O)[C@H](Cc1ccccc1)NC(=O)c1cnccn1)B(O)O [Bortezomib]

remaining activity at 1 µM (NEK2; [1]): 92.4%
remaining activity at 1 µM (NEK2; [2]): 89.3%
remaining activity at 1 µM (NEK2; [3]): 95.5%
remaining activity at 10 µM (NEK2; [1]): 86.5%
remaining activity at 10 µM (NEK2; [2]): 82.7%
remaining activity at 10 µM (NEK2; [3]): 90.3%
remaining activity at 1 µM (MAP2K2; [4]): 100%
remaining activity at 1 µM (MAP2K2; [5]): 101%
remaining activity at 1 µM (MAP2K2; [6]): 99.3%
remaining activity at 10 µM (MAP2K2; [7]): 94.3%
remaining activity at 10 µM (MAP2K2; [8]): 96.2%
remaining activity at 10 µM (MAP2K2; [9]): 92.4%
remaining activity at 1 µM (VEGFR2; [4]): 97.9%
remaining activity at 1 µM (VEGFR2; [5]): 100%
remaining activity at 1 µM (VEGFR2; [6]): 95.6%
remaining activity at 10 µM (VEGFR2; [7]): 99.7%
remaining activity at 10 µM (VEGFR2; [8]): 99.4%
remaining activity at 10 µM (VEGFR2; [9]): 100%
Compound: N[C@@H](CC(=O)N1CCn2c(nnc2C(F)(F)F)C1)Cc1cc(F)c(F)cc1F [Sitagliptin]

% Enzyme Activity (relative to DMSO controls), Average (MAP2K2; 1 uM, Average): 103.60%
% Enzyme Activity (relative to DMSO controls), Data 1 (MAP2K2; 1 uM, replicate Data 1): 103.14%
% Enzyme Activity (relative to DMSO controls), Data 2 (MAP2K2; 1 uM, replicate Data 2): 104.05%
% Enzyme Activity (relative to DMSO controls), Average (MAP2K2; 10 uM, Average): 101.38%
% Enzyme Activity (relative to DMSO controls), Data 1 (MAP2K2; 10 uM, replicate Data 1): 102.43%
% Enzyme Activity (relative to DMSO controls), Data 2 (MAP2K2; 10 uM, replicate Data 2): 100.33%
% Enzyme Activity (relative to DMSO controls), Average (VEGFR2; 1 uM, Average): 105.46%
% Enzyme Activity (relative to DMSO controls), Data 1 (VEGFR2; 1 uM, replicate Data 1): 101.88%
% Enzyme Activity (relative to DMSO controls), Data 2 (VEGFR2; 1 uM, replicate Data 2): 109.04%
% Enzyme Activity (relative to DMSO controls), Average (VEGFR2; 10 uM, Average): 105.67%
% Enzyme Activity (relative to DMSO controls), Data 1 (VEGFR2; 10 uM, replicate Data 1): 105.24%
% Enzyme Activity (relative to DMSO controls), Data 2 (VEGFR2; 10 uM, replicate Data 2): 106.1%
Compound: CN(C)CCCN1c2ccccc2Sc2ccc(Cl)cc21 [Chlorpromazine]
